# Data reported in US20240368115A1, “REGULATOR CONTAINING TRICYCLIC DERIVATIVE, PREPARATION METHOD THEREFOR AND APPLICATION THEREOF” (SHUJING BIOPHARMA CO., LTD, priority 2021, published 2024).
# Like-named read-outs stand apart in the source and are kept apart here.
# Tests used:
# 5-HT1A receptor = target: T1, 5-HT1A receptor (Homo sapiens, UniProt P08908); assay: 5-HT1A receptor cAMP agonist test; assay type: cell-based; details: HEK293 cell strain stably expressing 5-HT1A receptor; for EC50: cAMP, forskolin 2.5×10^−7 M; for 5-HT1A Max Act %: positive control serotonin 10^−6 M
# T1 construct: expressed in transfected cells
# T1 sequence (P08908 1-422): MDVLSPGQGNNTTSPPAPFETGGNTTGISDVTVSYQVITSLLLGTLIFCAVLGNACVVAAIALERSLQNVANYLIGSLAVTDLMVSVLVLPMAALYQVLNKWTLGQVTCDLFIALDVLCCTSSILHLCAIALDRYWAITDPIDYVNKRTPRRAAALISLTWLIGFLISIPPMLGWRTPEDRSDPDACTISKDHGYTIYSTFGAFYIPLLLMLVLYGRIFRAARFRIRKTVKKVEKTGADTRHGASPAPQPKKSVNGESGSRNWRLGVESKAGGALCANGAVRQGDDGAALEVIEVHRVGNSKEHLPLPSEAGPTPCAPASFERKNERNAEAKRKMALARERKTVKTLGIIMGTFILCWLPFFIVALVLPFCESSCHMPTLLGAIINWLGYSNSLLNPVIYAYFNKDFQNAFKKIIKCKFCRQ
# Text: • cAMP detection kit was purchased from Cisbio; an HEK293 cell strain stably expressing 5-HT1A receptor was constructed by Shanghai Shujing Biopharma Co., Ltd.; serotonin, forskolin, and IBMX were purchased from Sigma; ProxiPlate-384 well plates were purchased from PerkinElmer; HBSS was purchased from Thermo Fisher Scientific.
# (§1) • (1) The cultured cells were digested with trypsin, and the cell suspension was washed with HBSS buffer after the digestion was terminated. The medium was removed by centrifugation at 200×g. The pellet was resuspended in an appropriate amount of experimental buffer, and 20 μL of cell suspension was counted using a cell counter and diluted to 0.4×10^6 cells/mL. • (2) 5 μL of cell suspension was added to a ProxiPlate-384 well plate (2×10^3 cells/well). • (3) Test compounds were serially diluted in an experimental buffer, and 5 μL of the mixed solution was transferred to the reaction plate with Bravo.
# D2L receptor = target: T2, D2L receptor (Homo sapiens, UniProt P14416); assay: D2L receptor cAMP agonist test; assay type: cell-based; details: HEK293 cell strain stably expressing D2L receptor; for EC50: cAMP, forskolin 0.5 μM; for D2L Max Act %: positive control dopamine 1 μM
# T2 construct: expressed in transfected cells
# Description: • cAMP detection kit was purchased from Cisbio; an HEK293 cell strain stably expressing D2L receptor was constructed by Shanghai Shujing Biopharma Co., Ltd.; dopamine, forskolin, and IBMX were purchased from Sigma; ProxiPlate-384 well plates were purchased from PerkinElmer; HBSS was purchased from Thermo Fisher Scientific.
# • (1) The cryopreserved cells were thawed in a water bath at 37° C., the cell suspension was resuspended in HBSS buffer, and the mixed solution was centrifuged at 750 rpm for 5 min to remove the medium. The pellet was resuspended in an appropriate amount of experimental buffer, and an appropriate amount of cell suspension was diluted to 0.4×10^6 cells/mL. • (2) 5 μL of cell suspension was added to a ProxiPlate-384 well plate (2×10^3 cells/well), and the plate was centrifuged at 1000 rpm for 1 min. • (3) Test compounds were serially diluted in an experimental buffer, and 5 μL of the mixed solution was transferred to the reaction plate with Bravo.
# 5-HT2A receptor = 5-HT2A receptor (Homo sapiens, UniProt P28223); assay: Calcium flux test for 5-HT2A receptor; assay type: cell-based; details: CHO cell strain stably expressing 5-HT2A receptor; for IC50: calcium flux, antagonism of serotonin; for 5-HT2A Max Inh %: positive control ketanserin 10^−7 M
# Description: • Fluo-4 calcium flux detection kit was purchased from Invitrogen; a CHO cell strain stably expressing 5-HT2A receptor was purchased from PerkinElmer; serotonin was purchased from Sigma; ketanserin was purchased from Targetmol; polylysine-coated 384-well plates and 384-well compound plates were purchased from Greiner Bio-One. Molecular Device FLIPR, Agilent Bravo liquid workstation, and Countstar BioTech cell counter.
# • (1) The cryopreserved cells were rapidly thawed in a water bath at 37° C., and the cells were resuspended in a plating medium. The cryopreservation solution was removed by centrifugation at 200×g. The pellet was resuspended in an appropriate amount of plating medium, 20 μL of cell suspension was counted using a cell counter, and the cell density was diluted to 1×10^6 cells/mL. • (2) 20 μL of cell suspension was added to a polylysine-coated 384-well plate (2×10^4 cells/well). • (3) The cell plate was incubated in a 37° C./5% CO2 incubator for 16-20 h.
# • (1) The cell plate was taken out from the incubator and centrifuged at 100×g to remove the medium. 20 μL of experimental buffer was added, and then 20 μL of 2× fluorescent probe solution was added. […] The cell plate and agonist positive compound plate were placed into the FLIPR instrument, the detection program was run, 10 μL of the diluted compound was transferred from the agonist compound plate to the cell plate, and the fluorescence signal was read. […] The cell plate and test compound plate were placed in the FLIPR instrument, the detection program was run, and 10 μL of the diluted compound was transferred from the test compound plate to the cell plate. […] The test compound plate was then taken out, and the agonist positive compound plate with 6×EC50 concentration was placed.
# Inhibition rate (Inhibition %)=(negative control reading value−compound reading value)/(negative control reading value−positive control reading value)×100%
# D2S receptor = target: T3, D2S receptor (Homo sapiens, UniProt P14416); assay: D2S receptor cAMP agonist test; assay type: cell-based; details: HEK293 cell strain stably expressing D2S receptor; for EC50: cAMP, forskolin 5×10^−7 M; for D2S Max Act %: positive control dopamine 1×10^−7 M
# T3 construct: expressed in transfected cells
# Text: cAMP detection kit was purchased from Cisbio; an HEK293 cell strain stably expressing D2S receptor was constructed by Shanghai Shujing Biopharma Co., Ltd.; dopamine, forskolin, and IBMX were purchased from Sigma; ProxiPlate-384 well plates were purchased from PerkinElmer; HBSS was purchased from Thermo Fisher Scientific.
# as §1, with “0.6×10^6” for “0.4×10^6”, “(3×10^3” for “(2×10^3”
# [1] = Pharmacokinetic test in mice; assay type: in vivo; details: plasma, oral intragastric
# Description: Male ICR mice were administered orally intragastrically, the plasma concentrations of the compounds of the present invention were measured in the mice, the PK parameters were calculated, and the pharmacokinetic evaluation was performed on the compounds of the present invention.
# • (1) Test samples: the compounds of the examples of the present invention, self-made. • (2) Test animals: ICR mice, SPF grade, male, Xuzhou Medical University. • (3) Main test instruments:
# Drug preparation: according to the weight of the weighed drug, the preparation volume was calculated. 5% of DMSO was added firstly. After the drug was fully dissolved, 95% of 20% aqueous PB-cyclodextrin solution was then added, and the mixture was mixed well for later use.
# Administration route: oral intragastric administration. Frequency and duration of administration: single administration.
# ICR mice were stratified according to body weight and then randomly divided into groups of 9 mice each, and the mice were fasted overnight prior to the test. The mice were separately administered orally intragastrically. 50 μL of blood was collected from the fundus vein of the mouse at 0 h, 0.083 h, 0.25 h, 0.5 h, 1 h, 2 h, 4 h, 8 h, 12 h, and 24 h (3 time points for each mouse) to a sample tube containing heparin sodium as an anticoagulant, and the tube was placed in wet ice and centrifuged at 4000 r·min^−1 for 10 min. The plasma was separated, and cryopreserved in a refrigerator at −80° C. for testing.
# The concentrations of plasma samples were measured by high performance liquid chromatography-tandem mass spectrometry (LC-MS/MS). The retention times of the compounds and internal standard, chromatogram acquisitions, and integrals of chromatograms were processed using the software Analyst (AB SCIEX), and the data statistics were processed using the software Watson LIMS (Thermo Fisher Scientific) or Analyst (AB SCIEX). The concentration of plasma was processed using a non-compartmental model of the pharmacokinetic software WinNonlin™ Version 6.3 (Pharsight, Mountain View, CA), and pharmacokinetic parameters were calculated by a linear log-trapezoidal method.
# [2] = male, ICR, mouse, po, 5 mg/kg, single dose 5 mg/kg
# [3] = male, ICR, mouse, po, 5 mg/kg, single dose 5 mg/kg, read-out: AUC(0-inf)
# [4] = male, ICR, mouse, po, 5 mg/kg, single dose 5 mg/kg, read-out: Cmax
# [5] = male ICR mice, single dose 5 mg/kg, 5 mg/kg
# T2 sequence (P14416 whole entry): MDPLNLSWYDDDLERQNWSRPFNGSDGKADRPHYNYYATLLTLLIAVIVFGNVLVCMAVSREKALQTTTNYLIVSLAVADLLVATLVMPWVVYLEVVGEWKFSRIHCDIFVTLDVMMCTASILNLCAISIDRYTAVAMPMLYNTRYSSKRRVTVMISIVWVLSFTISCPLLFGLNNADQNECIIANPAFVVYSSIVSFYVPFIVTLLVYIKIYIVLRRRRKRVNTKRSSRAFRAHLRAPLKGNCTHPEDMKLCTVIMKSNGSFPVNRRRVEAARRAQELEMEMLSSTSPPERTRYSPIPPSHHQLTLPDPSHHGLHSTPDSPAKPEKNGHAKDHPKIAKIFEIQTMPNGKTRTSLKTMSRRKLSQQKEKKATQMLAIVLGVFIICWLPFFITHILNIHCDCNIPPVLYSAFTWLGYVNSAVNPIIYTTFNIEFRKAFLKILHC
# T3 sequence (P14416 1-414 isoform P14416-2): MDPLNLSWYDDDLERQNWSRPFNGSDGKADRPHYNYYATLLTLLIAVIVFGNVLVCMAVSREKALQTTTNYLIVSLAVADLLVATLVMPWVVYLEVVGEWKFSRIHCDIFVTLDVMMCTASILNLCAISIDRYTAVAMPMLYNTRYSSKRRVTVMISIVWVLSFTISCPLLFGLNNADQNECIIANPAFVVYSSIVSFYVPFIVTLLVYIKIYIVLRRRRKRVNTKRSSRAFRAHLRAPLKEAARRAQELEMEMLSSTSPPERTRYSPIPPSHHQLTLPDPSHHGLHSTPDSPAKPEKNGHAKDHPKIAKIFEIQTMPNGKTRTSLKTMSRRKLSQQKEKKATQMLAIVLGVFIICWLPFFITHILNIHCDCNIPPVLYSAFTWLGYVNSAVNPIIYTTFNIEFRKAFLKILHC
# Sequence of 5-HT2A receptor (P28223 whole entry): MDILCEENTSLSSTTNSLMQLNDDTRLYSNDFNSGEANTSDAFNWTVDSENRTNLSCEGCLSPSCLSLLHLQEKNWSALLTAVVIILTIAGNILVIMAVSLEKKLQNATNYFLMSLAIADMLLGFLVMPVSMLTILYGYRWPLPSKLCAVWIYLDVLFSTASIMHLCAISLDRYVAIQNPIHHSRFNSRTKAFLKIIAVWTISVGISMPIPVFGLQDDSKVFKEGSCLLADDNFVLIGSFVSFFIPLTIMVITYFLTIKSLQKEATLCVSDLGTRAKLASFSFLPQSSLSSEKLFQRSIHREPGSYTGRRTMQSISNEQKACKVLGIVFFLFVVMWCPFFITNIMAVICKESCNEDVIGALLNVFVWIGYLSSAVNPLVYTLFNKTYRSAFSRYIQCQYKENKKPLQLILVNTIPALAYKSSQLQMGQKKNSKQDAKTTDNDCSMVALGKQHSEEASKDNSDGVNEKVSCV
SMILES,EC50 (5-HT1A receptor) [nM],5-HT1A Max Act % (5-HT1A receptor) [%],EC50 (D2L receptor) [nM],D2L Max Act % (D2L receptor) [%],IC50 (5-HT2A receptor) [nM],5-HT2A Max Inh % (5-HT2A receptor) [%],EC50 (D2S receptor) [nM],D2S Max Act % (D2S receptor) [%],"half-life ([1]; male, ICR, mouse, po, 3 mg/kg, single dose 3 mg/kg) [h]","AUC(0-inf) ([1]; male, ICR, mouse, po, 3 mg/kg, single dose 3 mg/kg, read-out: AUC(0-inf)) [ng·h/mL]","Cmax ([1]; male, ICR, mouse, po, 3 mg/kg, single dose 3 mg/kg, read-out: Cmax) [ng/mL]","half-life [1, 2] [h]","AUC(0-inf) [1, 3] [ng·h/mL]","Cmax [1, 4] [ng/mL]","AUC(0-inf) [1, 5] [ng·h/mL]","Cmax [1, 5] [ng/mL]","t1/2 [1, 5] [h]"
"O=C1Nc2cc(OCCCCN3CCN(c4cccc5sc(Cl)cc45)CC3)ccc2C2CC12 (stereo not drawn) [Example 49, 5-(4-(4-(2-Chlorobenzo[b]thiophen-4-yl)piperazin-1-yl)butoxy)-1,1a,3,7b-tetrahydro-2H-cyclopropa[c]quinolin-2-one]",128,80.7,0.91,56.3,7400,90.4,0.99,112.6,10.5,4780,420,–,–,–,–,–,–
"O=C1Nc2cc(OCCCCN3CCN(c4cccc(Cl)c4Cl)CC3)ccc2[C@@H]2C[C@H]12 (single isomer, unassigned) [Example 1-P2]",1210,45.2,0.61,33.1,737,100.3,1.49,113.8,–,–,–,10.8,7100,430,–,–,–
"O=C1Nc2cc(OCCCCN3CCN(c4cccc5sccc45)CC3)ccc2C2CC12 (single isomer, unassigned) [Example 42-P2]",693,45.5,0.43,32.6,497,97.3,0.93,99.2,–,–,–,–,–,–,11157.8,1296.7,5.8
"O=C1Nc2cc(OCCCCN3CCN(c4cccc5c4CCO5)CC3)ccc2C2CC12 (single isomer, unassigned) [Example 45-P1]",243,56.4,2.12,28.0,398,99.8,1.01,106.1,–,–,–,3.2,4770,774,–,–,–
"O=C1Nc2cc(OCCCCN3CCN(c4cccc5c4OC(F)(F)O5)CC3)ccc2C2CC12 (stereo not drawn) [Example 41, 5-(4-(4-(2,2-Difluorobenzo[d][1,3]dioxolan-4-yl)piperazin-1-yl)butoxy)-1,1a,3,7b-tetrahydro-2H-cyclopropa[c]quinolin-2-one]",50.8,92.7,0.97,42.4,3350,80.4,0.92,115.0,–,–,–,8.6,9970,971,–,–,–
"O=C1Nc2cc(OCCCCN3CCN(c4cccc5c4CCO5)CC3)ccc2C2CC12 (stereo not drawn) [Example 45, 5-(4-(4-(2,3-Dihydrobenzofuran-4-yl)piperazin-1-yl)butoxy)-1,1a,3,7b-tetrahydro-2H-cyclopropa c quinolin-2-one]",253,54.7,0.44,41.3,460,100.1,0.93,105.6,–,–,–,6.1,9650,1160,–,–,–
